In patent US8957064B2, “Fused pyrimidines” (Bayer Intellectual Property GmbH, priority 2009, dated 2015):

Key:
[1] = target: His-tagged human recombinant kinase full-length Akt2 activated by PDK1 (Homo sapiens (Human), UniProt P31751); assay: Akt2 kinase assay (Akt2 TR-FRET assay, Biological Assay 2.0); type: biochemical; conditions: 10 μM ATP, 1 μM biotinylated peptide substrate, 60 min at 22° C.
From the text: Biological Assay 2.0: Akt2 Kinase Assay
Akt2 inhibitory activity of compounds of the present invention was quantified employing the Akt2 TR-FRET assay as described in the following paragraphs.
(§1) His-tagged human recombinant kinase full-length Akt2 expressed in insect cells and activated by PDK1 was purchased form Invitrogen (part number PV 3975). As substrate for the kinase reaction the biotinylated peptide biotin-Ahx-KKLNRTLSFAEPG (C-terminus in amide form) was used which can be purchased e.g. from the company Biosynthan GmbH (Berlin-Buch, Germany).
(§2) For the assay 50 nl of a 100 fold concentrated solution of the test compound in DMSO was pipetted into a black low volume 384 well microtiter plate (Greiner Bio-One, Frickenhausen, Germany), 2 μl of a solution of Akt2 in assay buffer [50 mM TRIS/HCl pH 7.5, 5 mM MgCl2, 1 mM dithiothreitol, 0.02% (v/v) Triton X-100 (Sigma)] were added and the mixture was incubated for 15 min at 22° C. to allow prebinding of the test compounds to the enzyme before the start of the kinase reaction. Then the kinase reaction was started by the addition of 3 μl of a solution of adenosine-tri-phosphate (ATP, 16.7 μM=>final conc. in the 5 μl assay volume is 10 μM) and substrate (1.67 μM=>final conc. in the 5 μl assay volume is 1 μM) in assay buffer and the resulting mixture was incubated for a reaction time of 60 min at 22° C. The concentration of Akt2 in the assay was adjusted depending of the activity of the enzyme lot and was chosen appropriate to have the assay in the linear range, typical enzyme concentrations were in the range of about 0.2 ng/μl (final conc. in the 5 μl assay volume).
(§3) The reaction was stopped by the addition of 5 μl of a solution of HTRF detection reagents (200 nM streptavidine-XL665 [Cisbio] and 1.5 nM anti-phosho-Serine antibody [Millipore, cat. #35-001] and 0.75 nM LANCE Eu-W 1024 labeled anti-mouse IgG antibody [Perkin Elmer]) in an aqueous EDTA-solution (100 mM EDTA, 0.1% (w/v) bovine serum albumin in 50 mM HEPES/NaOH pH 7.5).
(§4) The resulting mixture was incubated 1 h at 22° C. to allow the binding of the biotinylated phosphorylated peptide to the streptavidine-XL665 and the antibodies. Subsequently the amount of phosphorylated substrate was evaluated by measurement of the resonance energy transfer from the anti-mouse-IgG-Eu-Chelate to the streptavidine-XL665. Therefore, the fluorescence emissions at 620 nm and 665 nm after excitation at 350 nm was measured in a TR-FRET reader, e.g. a Rubystar (BMG Labtechnologies, Offenburg, Germany) or a Viewlux (Perkin-Elmer). The ratio of the emissions at 665 nm and at […] was taken as the measure for the amount of phosphorylated substrate. The data were normalised (enzyme reaction without inhibitor=0% inhibition, all other assay components but no enzyme=100% inhibition).

[2] = target: His-tagged human recombinant kinase full-length Akt1 (Homo sapiens (Human), UniProt P31749); assay: Akt1 kinase assay (Akt1 TR-FRET assay, Biological Assay 1.0); type: biochemical; conditions: 10 μM ATP, 1 μM biotinylated peptide substrate, 60 min at 22° C.
From the text: Biological Assay 1.0: Akt1 Kinase Assay
as §1, with “Akt1 inhibitory activity of compounds of the present invention may be quantified employing the Akt1 TR-FRET assay as described in the following paragraphs. His-tagged” for “His-tagged”, “Akt1” for “Akt2”, “cells” for “cells and activated by PDK1”, “3599).” for “3975).”
as §2, with “Akt1” for “Akt2”, “0.05” for “0.2”
as §3
as §4, with “HTRF” for “TR-FRET”

His-tagged human recombinant kinase full-length Akt1, sequence (P31749 whole entry): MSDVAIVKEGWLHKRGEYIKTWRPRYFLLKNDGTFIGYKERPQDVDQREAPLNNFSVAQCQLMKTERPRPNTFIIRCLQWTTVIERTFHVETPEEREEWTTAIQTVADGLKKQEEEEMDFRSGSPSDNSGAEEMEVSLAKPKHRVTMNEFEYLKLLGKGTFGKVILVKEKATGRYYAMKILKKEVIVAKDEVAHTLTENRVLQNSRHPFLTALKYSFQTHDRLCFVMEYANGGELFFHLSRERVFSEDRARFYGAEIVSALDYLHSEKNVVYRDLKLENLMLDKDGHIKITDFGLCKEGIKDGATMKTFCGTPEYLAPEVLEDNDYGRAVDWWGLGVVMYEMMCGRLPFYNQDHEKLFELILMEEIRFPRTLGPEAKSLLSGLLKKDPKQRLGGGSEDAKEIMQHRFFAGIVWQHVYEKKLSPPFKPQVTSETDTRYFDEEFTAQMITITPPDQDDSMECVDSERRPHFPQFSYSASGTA
His-tagged human recombinant kinase full-length Akt2 activated by PDK1, sequence (P31751 whole entry): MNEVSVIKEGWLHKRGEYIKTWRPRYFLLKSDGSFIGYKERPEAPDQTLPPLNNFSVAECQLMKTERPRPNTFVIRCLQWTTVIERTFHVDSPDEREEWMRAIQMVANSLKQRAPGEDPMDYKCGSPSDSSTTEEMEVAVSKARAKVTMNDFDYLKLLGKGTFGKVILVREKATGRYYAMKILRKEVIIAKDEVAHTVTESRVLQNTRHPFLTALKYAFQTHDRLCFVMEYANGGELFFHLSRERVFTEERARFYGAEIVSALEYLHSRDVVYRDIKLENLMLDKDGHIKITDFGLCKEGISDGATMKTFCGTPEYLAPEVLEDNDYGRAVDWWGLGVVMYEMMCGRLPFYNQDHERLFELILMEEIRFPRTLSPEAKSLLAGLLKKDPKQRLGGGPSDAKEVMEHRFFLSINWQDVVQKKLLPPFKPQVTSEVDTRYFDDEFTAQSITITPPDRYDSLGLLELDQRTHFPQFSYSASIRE

Structure (SMILES) | IC50 [1] [nM] | IC50 [2] [nM]
Cc1nc2nc(-c3ccc(CN4CCC(n5ncc6c(N)ncnc65)CC4)cc3)c(-c3ccccc3)cn2n1 [Example 22.0, 1-{1-[4-(2-methyl-6-phenyl-[1,2,4]-triazolo[1,5-a]pyrimidin-5-yl)benzyl]-piperidin-4-yl}-1H-pyrazolo[3,4-d]pyrimidin-4-ylamine] | 417 | 288
Cc1nc2nc(-c3ccc(CN4CCC(c5nc6cccnc6[nH]5)CC4)cc3)c(-c3ccccc3)cn2n1 [Example 23.0, 5-{4-[4-(3H-imidazo[4,5-b]pyridin-2-yl)-piperidin-1-ylmethyl]-phenyl}-2-methyl-6-phenyl-[1,2,4]triazolo[1,5-a]pyrimidine] | 759 | 315
Cc1nc2nc(-c3ccc(CN4CCC(c5cnc6ccccc6n5)CC4)cc3)c(-c3ccccc3)cn2n1 [Example 24.1, 2-{1-[4-(2-methyl-6-phenyl-[1,2,4]triazolo[1,5-a]pyrimidin-5-yl)-benzyl]-piperidin-4-yl}-quinoxaline] | 9880 | 4370
Cc1nc2nc(-c3ccc(CN4CC(c5n[nH]c(-c6ccccn6)n5)C4)cc3)c(-c3ccccc3)cn2c1Br [Example 26.0, 3-bromo-2-methyl-6-phenyl-7-{4-[3-(5-pyridine-2-yl-1H-[1,2,4]triazole-3-yl]-azetidine-1-ylmethyl]-phenyl}-imidazo[1,2-a]pyrimidine] | 4 | 4
COC(=O)c1cnn2cc(-c3c(F)cccc3F)c(-c3ccc(CN4CC(c5n[nH]c(-c6cccc(C)n6)n5)C4)cc3)nc12 [Example 27.0, 6-(2,6-difluorophenyl)-5-(4-{3-[5-(6-methylpyridine-2-yl)-1H-[1,2,4]triazole-3-yl]-azetidine-1-ylmethyl}-phenyl)-pyrazolo[1,5-a]pyrimidine-3-carboxylic acid methyl ester] | 115 | 12
COC(=O)c1cnn2cc(-c3c(F)cccc3F)c(-c3ccc(CN4CC(c5n[nH]c(-c6ccccn6)n5)C4)cc3)nc12 [Example 28.0, 6-(2,6-difluorophenyl)-5-(4-{3-[5-(pyridine-2-yl)-1H-[1,2,4]triazole-3-yl]-azetidine-1-ylmethyl}-phenyl)-pyrazolo[1,5-a]pyrimidine-3-carboxylic acid methyl ester] | 761 | 14
CC(C)c1nc2nc(-c3ccc(CN4CC(c5n[nH]c(-c6ccccn6)n5)C4)cc3)c(-c3ccccc3)cn2n1 [Example 29.0] | 35 | 84
CC(C)c1nc2nc(-c3ccc(CN4CCC(c5cnc6ccccc6n5)CC4)cc3)c(-c3ccccc3)cn2n1 [Example 30.0, 2-{1-[4-(2-isopropyl-6-phenyl-[1,2,4]triazolo[1,5-a]pyrimidin-5-yl)benzyl]-piperidine-4-yl}-quinoxaline] | 509 | 6700
Cc1cccc(-c2nc(C3CN(Cc4ccc(-c5nc6nc(C(C)C)nn6cc5-c5ccccc5)cc4)C3)n[nH]2)n1 [Example 31.0, 2-isopropyl-5-(4-{3-[5-(6-methyl-pyridine-2-yl)-1H-[1,2,4]triazolo-3-yl]-azetidine-1-ylmethyl}-phenyl)-6-phenyl-[1,2,4]triazolo[1,5-a]pyrimidine] | 14 | 70
COC(=O)c1cnn2cc(-c3ccc(F)cc3F)c(-c3ccc(CN4CC(c5n[nH]c(-c6ccccn6)n5)C4)cc3)nc12 [Example 32.0, 6-(2,4-difluorophenyl)-5-(4-{3-[5-(pyridine-2-yl)-1H-[1,2,4]triazole-3-yl]-azetidine-1-ylmethyl}-phenyl)-pyrazolo[1,5-a]pyrimidine-3-carboxylic acid methyl ester] | 214 | 7
Fc1ccc(-c2cn3ccnc3nc2-c2ccc(CN3CC(c4n[nH]c(-c5ccccn5)n4)C3)cc2)cc1 [Example 33.0, 6-(4-fluorophenyl)-7-{4-[3-(5-pyridine-2-yl-1H-[1,2,4]triazole-3-yl]-azetidine-1-ylmethyl]-phenyl}-imidazo[1,2-a]pyrimidine] | 253 | 26
Fc1ccc(-c2cn3ccnc3nc2-c2ccc(CN3CCC(c4cnc5ccccc5n4)CC3)cc2)cc1 [Example 34.0, 2-(1-{4-[6-(4-fluorophenyl)-imidazo[1,2-a]pyrimidin-7-yl]-benzyl}-piperidine-4-yl)-quinoxaline] | 2290 | 365
Cc1cccc(-c2nc(C3CN(Cc4ccc(-c5nc6nc(C)nn6cc5-c5ccc(F)cc5F)cc4)C3)n[nH]2)n1 [Example 35.0, 6-(2,4-difluorophenyl)-2-methyl-5-(4-{3-[5-(6-methyl-pyridine-2-yl)-1H-[1,2,4]triazole-3-yl]-azetidine-1-ylmethyl}-phenyl)-[1,2,4]triazolo[1,5-a]pyrimidine] | 42 | 29
c1ccc(-c2cn3ccnc3nc2-c2ccc(CN3CCC(c4cnc5ccccc5n4)CC3)cc2)cc1 [Example 36.0, 2-{1-[4-(6-phenyl-imidazo[1,2-a]pyrimidin-7-yl)-benzyl]-piperidine-4-yl}-quinoxaline] | 589 | 70
Cc1cn2cc(-c3ccccc3)c(-c3ccc(CN4CCC(c5cnc6ccccc6n5)CC4)cc3)nc2n1 [Example 37.0, 2-{1-[4-(2-methyl-6-phenyl-imidazo[1,2-a]pyrimidin-7-yl)benzyl]-piperidine-4-yl}-quinoxaline] | 256 | 77
Cc1cccc(-c2nc(C3CN(Cc4ccc(-c5nc6nc(C)cn6cc5-c5ccccc5)cc4)C3)n[nH]2)n1 [Example 38.0, 2-methyl-7-(4-{3-[5-(6-methylpyridine-2-yl)-1H-[1,2,4]triazole-3-yl]-azetidine-1-ylmethyl}-phenyl)-6-phenyl-imidazo[1,2-a]pyrimidine] | 16 | 13
Cc1cccc(-c2nc(C3CN(Cc4ccc(-c5nc6nc(C7CC7)nn6cc5-c5ccc(F)cc5)cc4)C3)n[nH]2)n1 [Example 39.0, 2-cyclopropyl-6-(4-fluorophenyl)-5-(4-{3-[5-(6-methyl-pyridine-2-yl)-1H-[1,2,4]triazole-3-yl]-azetidine-1-ylmethyl}-phenyl)-[1,2,4]triazolo[1,5-a]pyrimidine] | 27 | 29
c1ccc(-c2cn3nc(C4CC4)nc3nc2-c2ccc(CN3CCC(c4cnc5ccccc5n4)CC3)cc2)cc1 [Example 40.0, 2-{1-[4-(2-cyclopropyl-6-phenyl-[1,2,4]triazolo[1,5-a]pyrimidin-5-yl)-benzyl]-piperidine-4-yl}-quinoxaline] | 273 | 247
